Where “and” joins values, the source holds several entries; their conditions need not be identical. Equal values may be shown once.
Assay: Serial tail vein bleed PK study of 2-Br-LSD and 2-Br-LSD prodrugs in SD rats; 2-Br-LSD measured in plasma
Conditions: analyte 2-Br-LSD in plasma; for AUC(0-t): AUC0-last; for half-life: T½
[1] = 2-Br-LSD 1 mg/kg IV, male SD rat, individual animal
[2] = 2-Br-LSD 4 mg/kg oral, male SD rat, individual animal
[3] = male, Sprague-Dawley, rat, plasma, iv, 1 mg/kg, 2-Br-LSD 1 mg/kg IV, male SD rat, individual animal
[4] = male, Sprague-Dawley, rat, plasma, iv, 1 mg/kg, 2-Br-LSD 1 mg/kg IV, male SD rats, mean of 3
[5] = male, Sprague-Dawley, rat, plasma, po, 4 mg/kg, 2-Br-LSD 4 mg/kg oral, male SD rat, individual animal
[6] = male, Sprague-Dawley, rat, plasma, po, 4 mg/kg, 2-Br-LSD 4 mg/kg oral, male SD rats, mean of 3

**Q.** What does the source list for `CCN(CC)C(=O)[C@@H]1C=C2c3cccc4[nH]c(Br)c(c34)C[C@H]2N(C)C1` [Example 2-Br-LSD, (6aR,9R)-5-bromo-N,N-diethyl-7-methyl-6,6a,8,9-tetrahydro-4H-indolo[4,3-fg]quinoline-9-carboxamide]?
**A.** AUC0-inf [1]: 269 ng·h/mL and 308 ng·h/mL; AUC0-last [1]: 268 ng·h/mL and 304 ng·h/mL; Cmax [1]: 658 ng/mL and 500 ng/mL; Tlast [1]: 4.00 h; T½ [1]: 37.7 min and 44.8 min; Tlast (2-Br-LSD 1 mg/kg IV, male SD rats, mean of 3): 4.00 h; AUC0-inf [2]: 1960 ng·h/mL and 1450 ng·h/mL; AUC0-last [2]: 1430 ng·h/mL and 997 ng·h/mL; Cmax [2]: 366.0 ng/mL and 209.0 ng/mL; Tlast [2]: 7 h; T½ [2]: 240 min; Tlast (2-Br-LSD 4 mg/kg oral, male SD rats, mean of 3): 7 h; AUC0-inf (male, Sprague-Dawley, rat, plasma, iv, 1 mg/kg, AUC0-inf, 2-Br-LSD 1 mg/kg IV, male SD rat, individual animal): 280 ng·h/mL; AUC0-inf (male, Sprague-Dawley, rat, plasma, iv, 1 mg/kg, AUC0-inf, 2-Br-LSD 1 mg/kg IV, male SD rats, mean of 3): 286 ng·h/mL; AUC(0-t) [3]: 278 ng·h/mL; AUC(0-t) [4]: 283 ng·h/mL; Cmax (male, Sprague-Dawley, rat, plasma, iv, 1 mg/kg, Cmax, 2-Br-LSD 1 mg/kg IV, male SD rat, individual animal): 577 ng/mL; Cmax (male, Sprague-Dawley, rat, plasma, iv, 1 mg/kg, Cmax, 2-Br-LSD 1 mg/kg IV, male SD rats, mean of 3): 578 ng/mL; half-life [3]: 44.3 min; half-life [4]: 42.2 min; AUC0-inf (male, Sprague-Dawley, rat, plasma, po, 4 mg/kg, AUC0-inf, 2-Br-LSD 4 mg/kg oral, male SD rat, individual animal): 1780 ng·h/mL; AUC0-inf (male, Sprague-Dawley, rat, plasma, po, 4 mg/kg, AUC0-inf, 2-Br-LSD 4 mg/kg oral, male SD rats, mean of 3): 1730 ng·h/mL; AUC(0-t) [5]: 1350 ng·h/mL; AUC(0-t) [6]: 1260 ng·h/mL; Cmax (male, Sprague-Dawley, rat, plasma, po, 4 mg/kg, Cmax, 2-Br-LSD 4 mg/kg oral, male SD rat, individual animal): 338 ng/mL; Cmax (male, Sprague-Dawley, rat, plasma, po, 4 mg/kg, Cmax, 2-Br-LSD 4 mg/kg oral, male SD rats, mean of 3): 304 ng/mL; half-life [5]: 216 min; half-life [6]: 222 min

Source: US20250129064A1, “PRODRUGS OF 2-BROMO-LSD (2-BRO[…] DIETHYLAMIDE)” (Terran Biosciences Inc., priority 2022, published 2025)
